Measured values from patent US20070031511A1, “Method of treatment” (priority 2003, published 2007).
Entries after “also recorded” stand apart in the source; their conditions may differ. Where two headings read alike, the source gives them in different places.

Key:
[1] = test system: IMGE-5 cells; experiment: IMGE-5 cell proliferation, MTT assay; type: cell-based, mice; conditions: for Mean Response ± SEM (% Control), proliferation of IMGE cells: treatment alone: 10 nM Ggly, 32 mol/mol Bi without Ggly, fetal calf serum positive control
[2] = test system: IMGE-5 cells; experiment: Wound healing / cell migration assay; type: cell-based, mice; conditions: for Stimulation of IMGE-5 cell migration: wound healing assay, fragments and mutants shown at 1 nM (FIGS. 7B, 8B)
In short: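 Murine gastric IMGE-5 cells at 80% confluence were shifted to 39 °C (non-permissive), serum-starved 24 h, then scratch-wounded. They were treated with or without compound in serum-free DMEM. Wound width was measured at six positions after 24 h and averaged.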

[3] = Quenching of peptide tryptophan fluorescence by ferric ions (stoichiometry, apparent Kd); type: binding; conditions: mean ± S.E.
In short: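 Ferric ions titrated into peptide in 10 mM sodium acetate pH 4.0, 100 mM NaCl, 0.005% Tween 20; Trp fluorescence quenching read at ex 290/em 345 nm. Stoichiometry and apparent Kd from linear regression of Cs/fa = pCa + Kd/(1−fa); means ±S.E. of independent experiments.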

Molecule | Mean Response ± SEM (% Control), proliferation of IMGE cells [1] [% Control] | Effect on Ggly-induced migration of IMGE-5 cells ([2]; 2, 8 or 32 moles/mole Ggly, 10 nM Ggly, 17 or 24 hours) | Effect of bismuth ions alone on migration ([2]; maximum concentration tested, without Ggly) | Kd ([3]; pH 4.0, read-out: Kd (μM) of ferric ion binding (amidated gastrin17 and related peptides)) [µM] | Kd ([3]; pH 4.0, model with two identical independent binding sites, read-out: Ferric Kd) [µM] | Increase in proliferation of IMGE-5 [1] [fold] | Stimulation of IMGE-5 cell migration [2] | Kd ([3]; 10 mM sodium acetate pH 4.0, 100 mM NaCl, 0.005% Tween 20, read-out: Kd (μM), apparent dissociation constant for ferric ions) [µM]
[Bi+3] [bismuth ions] | 97.9 ± 2.5 | completely blocked | no effect | – | – | – | – | –
CSCC[C@H](NC(=O)[C@H](Cc1c[nH]c2ccccc12)NC(=O)CNC(=O)[C@H](Cc1ccc(O)cc1)NC(=O)[C@H](C)NC(=O)[C@H](CCC(=O)O)NC(=O)[C@H](CCC(=O)O)NC(=O)[C@H](CCC(=O)O)NC(=O)[C@H](CCC(=O)O)NC(=O)[C@H](CCC(=O)O)NC(=O)[C@H](CC(C)C)NC(=O)[C@H](Cc1c[nH]c2ccccc12)NC(=O)[C@@H]1CCCN1C(=O)CNC(=O)[C@@H]1CCC(=O)N1)C(=O)N[C@@H](CC(=O)O)C(=O)N[C@@H](Cc1ccccc1)C(N)=O [Gamide] | – | – | – | 0.2 ± 0.14 | 0.2 ± 0.1 | 2 | did not stimulate IMGE-5 cell migration; also recorded: inactive | –
Ggly: glycine-extended gastrin17, 18 amino acid non-amidated gastrin, SEQ ID NO:4, residues 55-72 of progastrin (XGPWLEEEEEAYGWMDFG; (1)..(1) pyroglutamate; listed as Homo sapiens) | 135.7 ± 3.6 | – | – | – | – | 2 | considerably reduced wound size | 0.18 ± 0.04
